# Earlier results in patent US20090196919A1, “OXCARBAZEPINE DOSAGE FORMS” (priority 2004, published 2009).
compound,measurement,value
"NC(=O)N1c2ccccc2CC(=O)c2ccccc21 [Oxcarbazepine, 10,11-dihydro-10-oxo-5H-dibenz[b,f]azepine-5-carboxamide]",solubility in water,poor
